What was measured:
Assay in all cases: relative viability (nuclei count vs DMSO), 5 days (fraction); higher = more cells survive
17-AAG + Lapatinib = compound: C=CCNC1=C2C[C@@H](C)C[C@H](OC)[C@H](O)[C@@H](C)/C=C(\C)[C@H](OC(N)=O)[C@@H](OC)/C=C\C=C(/C)C(=O)NC(=CC1=O)C2=O [17-AAG] + CS(=O)(=O)CCNCc1ccc(-c2ccc3ncnc(Nc4ccc(OCc5cccc(F)c5)c(Cl)c4)c3c2)o1 [Lapatinib] (partner 2 µM)
Summary of the method: (§1)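 Dosing by pin tool came one day after lung cancer cell lines were seeded in 1536-well plates, using either one drug or a fixed anchor-drug dose plus five library-drug doses (not always all listed) in √10 steps. After 5 days, nuclei were counted on 4× images. Relative viability is treated-well nuclei count divided by vehicle-well nuclei count, and values are medians of duplicate plates.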

17-AAG + Crizotinib = compound: C=CCNC1=C2C[C@@H](C)C[C@H](OC)[C@H](O)[C@@H](C)/C=C(\C)[C@H](OC(N)=O)[C@@H](OC)/C=C\C=C(/C)C(=O)NC(=CC1=O)C2=O [17-AAG] + C[C@@H](Oc1cc(-c2cnn(C3CCNCC3)c2)cnc1N)c1c(Cl)ccc(F)c1Cl [Crizotinib] (partner 1 µM)
Summary of the method: as §1

17-AAG + Dasatinib = compound: C=CCNC1=C2C[C@@H](C)C[C@H](OC)[C@H](O)[C@@H](C)/C=C(\C)[C@H](OC(N)=O)[C@@H](OC)/C=C\C=C(/C)C(=O)NC(=CC1=O)C2=O [17-AAG] + Cc1nc(Nc2ncc(C(=O)Nc3c(C)cccc3Cl)s2)cc(N2CCN(CCO)CC2)n1 [Dasatinib] (partner 0.075 µM)
Summary of the method: as §1

17-AAG + Pemetrexed = compound: C=CCNC1=C2C[C@@H](C)C[C@H](OC)[C@H](O)[C@@H](C)/C=C(\C)[C@H](OC(N)=O)[C@@H](OC)/C=C\C=C(/C)C(=O)NC(=CC1=O)C2=O [17-AAG] + Nc1nc2[nH]cc(CCc3ccc(C(=O)N[C@@H](CCC(=O)O)C(=O)O)cc3)c2c(=O)[nH]1 [Pemetrexed] (partner 0.2 µM)
Summary of the method: as §1

| Cell Line | relative viability (17-AAG + Lapatinib; first compound 0.00128 µM) | relative viability (17-AAG + Lapatinib; first compound 0.004048 µM) | relative viability (17-AAG + Lapatinib; first compound 0.0128 µM) | relative viability (17-AAG + Lapatinib; first compound 0.04048 µM) | relative viability (17-AAG + Lapatinib; first compound 0.128 µM) | relative viability (17-AAG + Crizotinib; first compound 0.00128 µM) | relative viability (17-AAG + Crizotinib; first compound 0.004048 µM) | relative viability (17-AAG + Crizotinib; first compound 0.0128 µM) | relative viability (17-AAG + Crizotinib; first compound 0.04048 µM) | relative viability (17-AAG + Crizotinib; first compound 0.128 µM) | relative viability (17-AAG + Dasatinib; first compound 0.00128 µM) | relative viability (17-AAG + Dasatinib; first compound 0.004048 µM) | relative viability (17-AAG + Dasatinib; first compound 0.0128 µM) | relative viability (17-AAG + Dasatinib; first compound 0.04048 µM) | relative viability (17-AAG + Dasatinib; first compound 0.128 µM) | relative viability (17-AAG + Pemetrexed; first compound 0.00128 µM) | relative viability (17-AAG + Pemetrexed; first compound 0.004048 µM) | relative viability (17-AAG + Pemetrexed; first compound 0.0128 µM) | relative viability (17-AAG + Pemetrexed; first compound 0.04048 µM) | relative viability (17-AAG + Pemetrexed; first compound 0.128 µM) |
| --- | --- | --- | --- | --- | --- | --- | --- | --- | --- | --- | --- | --- | --- | --- | --- | --- | --- | --- | --- | --- |
| NCI-H838 | 1.02 | 0.878 | 0.141 | 0.121 | 0.0916 | 0.748 | 0.729 | 0.259 | 0.118 | 0.112 | 0.291 | 0.269 | 0.203 | 0.186 | 0.2 | 0.258 | 0.313 | 0.208 | 0.133 | 0.154 |
| NCI-H1355 | 0.97 | 0.979 | 0.776 | 0.223 | 0.159 | 1.03 | 1.1 | 1.1 | 0.93 | 0.287 | 0.708 | 0.725 | 0.327 | 0.325 | 0.156 | 1 | 0.993 | 1.06 | 0.623 | 0.164 |
| NCI-H1975 | 0.872 | 0.739 | 0.256 | 0.166 | 0.11 | 0.951 | 0.825 | 0.218 | 0.163 | 0.126 | 0.315 | 0.247 | 0.121 | 0.104 | 0.0938 | 0.299 | 0.338 | 0.191 | 0.162 | 0.156 |
| NCI-H727 | 0.775 | 0.765 | 0.829 | 0.238 | 0.342 | 0.968 | 0.74 | 0.586 | 0.191 | 0.188 | 0.378 | 0.376 | 0.326 | 0.231 | 0.214 | – | – | – | – | – |
| NCI-H2342 | – | – | – | – | – | – | – | – | – | – | 0.294 | 0.394 | 0.306 | 0.293 | 0.3 | 0.803 | 0.854 | 0.782 | 0.589 | 0.39 |
| EBC-1 | 0.217 | 0.234 | 0.192 | 0.2 | 0.2 | 0.237 | 0.207 | 0.163 | 0.148 | 0.135 | – | – | – | – | – | – | – | – | – | – |
| HCC-44 | 1.06 | 0.986 | 0.998 | 0.287 | 0.125 | 0.823 | 0.746 | 0.766 | 0.204 | 0.122 | – | – | – | – | – | 0.639 | 0.619 | 0.649 | 0.694 | 0.352 |
| NCI-H1648 | – | – | – | – | – | – | – | – | – | – | – | – | – | – | – | – | 0.904 | 0.649 | 0.29 | 0.288 |
| NCI-H441 | – | – | – | – | – | 0.804 | 0.707 | 0.462 | 0.292 | 0.0949 | 0.587 | 0.45 | 0.129 | 0.122 | 0.127 | 0.255 | 0.28 | 0.284 | 0.106 | 0.125 |
| SW 900 | – | – | – | – | – | – | – | – | – | – | 0.731 | 0.314 | 0.118 | 0.0729 | 0.0968 | 0.455 | 0.437 | 0.242 | 0.139 | 0.168 |
| ABC-1 | 0.968 | 1.03 | 1.06 | 1.54 | 1.12 | 1.19 | 1.08 | 1.04 | 1.3 | 0.898 | 0.607 | 0.666 | 0.633 | 0.514 | 0.392 | – | – | – | – | – |
| NCI-H1793 | 0.447 | 0.434 | 0.35 | 0.217 | 0.156 | – | – | – | – | – | 0.437 | 0.243 | 0.14 | 0.122 | 0.129 | 0.837 | 0.513 | 0.213 | 0.16 | 0.124 |
| NCI-H1395 | 0.903 | 1.12 | 0.485 | 0.406 | 0.417 | – | – | – | – | – | 0.429 | 0.366 | 0.304 | 0.326 | 0.287 | 0.86 | 0.938 | 0.494 | 0.349 | 0.354 |
| NCI-H1299 | 0.964 | 0.904 | 0.924 | 0.779 | 0.416 | 0.975 | 0.932 | 0.897 | 0.814 | 0.237 | – | – | – | – | – | – | – | – | – | – |
| ChaGo-K-1 | – | – | – | – | – | 1.11 | 1.07 | 1.03 | 0.628 | 0.293 | 0.507 | 0.636 | 0.464 | 0.335 | 0.186 | 0.25 | 0.276 | 0.264 | 0.253 | 0.204 |
| NCI-H522 | – | – | – | – | – | – | – | – | – | – | 0.822 | 0.799 | 0.77 | 0.632 | 0.443 | 0.974 | 1.01 | 0.673 | 0.764 | 0.372 |
| A549 | 0.99 | 0.548 | 0.129 | 0.0692 | 0.0593 | 0.666 | 0.372 | 0.0579 | 0.0609 | 0.0363 | – | – | – | – | – | – | – | – | – | – |
| IA-LM | 1.06 | 0.736 | 0.479 | 0.502 | 0.0825 | 0.807 | 0.663 | 0.758 | 0.291 | 0.0644 | – | – | – | – | – | – | – | – | – | – |
| LCLC-103H | – | – | – | – | – | 1.12 | 0.979 | 0.976 | 0.928 | 1.06 | 0.446 | 0.522 | 0.464 | 0.456 | 0.46 | 0.452 | 0.48 | 0.461 | 0.557 | 0.61 |
| Calu-6 | 1.03 | 1.01 | 0.861 | 0.323 | 0.135 | 0.842 | 0.77 | 0.775 | 0.202 | 0.109 | – | – | – | – | – | – | – | – | – | – |
